According to US7217703B2, “8-(2-hydroxyphenoxy)octyldiethanolamine and salts thereof for delivery of active agents” (Emisphere Technologies, Inc., priority 2004, dated 2007):

Experiment: Oral absorption of Ibandronate in rats (urine Ibandronate, 16 h collection, GC/MS)
Format: in vivo, male Sprague-Dawley rats
Details: oral gavage, rat, urine 0-16 h post-dosing
Method: Oral absorption studies were performed in rats to evaluate the delivery of the bisphosphonate, Ibandronate, when co-administered with a delivery agent compound of the present invention. Sprague-Dawley rats were administered Ibandronate alone or in combination with a delivery agent compound by oral gavage. Urine samples were collected up to 16 hours post-dosing for Ibandronate quantitations. […]
Urine Ibandronate levels from treated rats were determined using a GC/MS method with a standard calibration range of 0–2000 ng/mL and a limit of quantitation (LOQ) of 2.5 ng/ml. Quality control (QC) samples were prepared fresh daily and were analyzed with samples from treated rats. […]
The amount of Ibandronate excreted in the urine is the dose response and was plotted as a straight line against the Ibandronate dose (linear dose-response relationship was assumed). The relative potency of the four delivery agent-containing Ibandronate formulations were calculated against the control formulations (without delivery agent) using a Student's t-test. […]

Mean urine Ibandronate concentration (Ibandronate 5 mg/kg alone): 426.8 | Mean urine Ibandronate concentration (Ibandronate 15 mg/kg alone): 4157.5
Structure (SMILES): CCCCCN(C)CCC(O)(P(=O)(O)O)P(=O)(O)O [Ibandronate]
